We go through 8 compounds from ChEMBL document CHEMBL5625182, “Synthesis and antibacterial activities of baulamycin A inspired derivatives” (Eur J Med Chem, 2023).

Molecules are shown by their SMILES. In brackets after ≈: the same amount, converted by molar mass. Activity calls are given as the source filed them. No cut-off for these calls is given here.

Experiment [1] has as its system Staphylococcus aureus. The experiment in a line: Antibacterial activity against quinolone-resistant Staphylococcus aureus CCARM3505 assessed as inhibition of bacterial growth incubated for 18 hrs by microdilution method. The class given is functional.
Experiment [2] concerns the target T1, L-2,3-diaminopropanoate--citrate ligase (Staphylococcus aureus (strain NCTC 8325 / PS 47)) (UniProt Q2G1M9).
T1 sequence (whole entry): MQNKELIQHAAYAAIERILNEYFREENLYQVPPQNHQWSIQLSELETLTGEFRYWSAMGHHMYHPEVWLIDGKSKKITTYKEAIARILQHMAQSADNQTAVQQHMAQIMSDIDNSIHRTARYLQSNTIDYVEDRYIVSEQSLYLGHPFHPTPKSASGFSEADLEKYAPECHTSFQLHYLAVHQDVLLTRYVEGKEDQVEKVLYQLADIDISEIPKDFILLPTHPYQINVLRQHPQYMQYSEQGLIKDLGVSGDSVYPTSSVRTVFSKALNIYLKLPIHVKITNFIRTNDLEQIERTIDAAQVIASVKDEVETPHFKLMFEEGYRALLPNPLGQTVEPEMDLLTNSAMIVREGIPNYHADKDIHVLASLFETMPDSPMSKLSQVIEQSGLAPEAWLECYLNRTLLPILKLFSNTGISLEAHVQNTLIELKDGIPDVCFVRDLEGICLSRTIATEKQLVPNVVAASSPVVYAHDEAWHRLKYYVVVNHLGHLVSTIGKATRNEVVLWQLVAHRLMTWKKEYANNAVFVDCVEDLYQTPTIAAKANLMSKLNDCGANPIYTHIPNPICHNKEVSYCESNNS
Nature of the experiment: Inhibition of Staphylococcus aureus SbnE at 50 uM incubated for 1 hr by malachite green staining based microplate reader analysis relative to control.

For the next experiment, the system named is Salmonella typhimurium. The experiment in a line: Antibacterial activity against Salmonella typhimurium ATCC14028 assessed as inhibition of bacterial growth incubated for 18 hrs by microdilution method. The class given is functional, Salmonella enterica subsp. enterica serovar Typhimurium. As to conditions: Salmonella enterica. For orientation: In broth dilution the organism is exposed to a series of concentrations in liquid medium.

The test system of experiment [3] is Staphylococcus aureus. The experiment in a line: Antibacterial activity against […] Staphylococcus aureus ATCC25923 assessed as inhibition in bacterial growth incubated for 18 hrs by microdilution method. The experiment is classed as functional.
The next experiment has as its system Escherichia coli. The experiment in a line: Antibacterial activity against Escherichia coli MC1061 assessed as inhibition of bacterial growth incubated for 18 hrs by microdilution method. The experiment is classed as functional.
In experiment [4] the test system is Staphylococcus aureus. Nature of the experiment: Antibacterial activity against methicillin resistant Staphylococcus aureus CCARM3167 assessed as inhibition in bacterial growth incubated for 18 hrs by microdilution method. The experiment is classed as functional.
Experiment [5] is described as follows: Antibacterial activity against Bacillus subtilis ATCC6633 assessed as inhibition of bacterial growth incubated for 18 hrs by microdilution method. The experiment is classed as functional, Bacillus subtilis […].
The next experiment has as its system Bacillus cereus. Nature of the experiment: Antibacterial activity against Bacillus cereus ATCC27348 assessed as inhibition of bacterial growth incubated for 18 hrs by microdilution method. The experiment is classed as functional.
Another experiment relates to Cell membrane. Nature of the experiment: Induction of membrane disruption in methicillin resistant Staphylococcus aureus CCARM3167 at MIC incubated for 30 mins PI staining based Flow cytometry. In general terms: A flow cytometer gives signals particle by particle.
Experiment [6] concerns Staphylococcus aureus. Nature of the experiment: Antibacterial activity against methicillin resistance Staphylococcus aureus assessed as reduction in biofilm formation at 1/2 times MIC incubated 24 hrs by crystal violet staining based microplate reader analysis. The experiment is classed as functional, organism-based.
Experiment [7] concerns the target T2, L-2,3-diaminopropanoate--citrate ligase (Staphylococcus aureus (strain NCTC 8325 / PS 47), UniProt Q2G1M9).
T2 sequence (Q2G1M9 whole entry): T1 sequence (whole entry)
Nature of the experiment: Inhibition of Staphylococcus aureus SbnE incubated for 1 hr by malachite green staining based microplate reader analysis.

For the compound `Cc1onc(-c2ccccc2)c1C(=O)N[C@@H]1C(=O)N2[C@@H]1SC(C)(C)[C@@H]2C(=O)O` [OXACILLIN], the MIC was > 256 mg/L in the experiment on Staphylococcus aureus [1]; 64 mg/L (≈ 159 µM) in the experiment on Salmonella typhimurium; 0.25 mg/L (≈ 0.623 µM) in the experiment with Staphylococcus aureus [3]; 64 mg/L (≈ 159 µM) with Escherichia coli; > 256 mg/L in the experiment with Staphylococcus aureus [4]; 8 mg/L (≈ 19.9 µM) in [5]. Besides, the MIC in the experiment on Bacillus cereus turned out to be 32 mg/L (≈ 79.7 µM). Further, the inhibition in experiment [2] was found to be 10.2%.

With `CCn1cc(C(=O)O)c(=O)c2cc(F)c(N3CCNCC3)cc21` [NORFLOXACIN], the MIC in the experiment with Staphylococcus aureus [1] is > 256 mg/L; in the experiment on Salmonella typhimurium, 2 mg/L (≈ 6.26 µM); in the experiment on Staphylococcus aureus [3], > 256 mg/L; in the experiment on Escherichia coli it was 2 mg/L (≈ 6.26 µM); with Staphylococcus aureus [4] it was 4 mg/L (≈ 12.5 µM); in experiment [5], 4 mg/L (≈ 12.5 µM). Also, the MIC with Bacillus cereus turned out to be 2 mg/L (≈ 6.26 µM). Also, in experiment [2], the inhibition was 16.8%.

Take `CC(C)C[C@H]([C@H](O)C[C@H](O)C#C[C@@H](C)C[C@H](C)C[C@@H](C)COCc1ccccc1)[C@@H](O)c1cc(O)cc(O)c1`: the MIC is 16 mg/L (≈ 29.6 µM) in the experiment with Staphylococcus aureus [1]; > 256 mg/L with Salmonella typhimurium; 8 mg/L (≈ 14.8 µM) in the experiment with Staphylococcus aureus [3]; > 256 mg/L in the experiment with Escherichia coli; 4 mg/L (≈ 7.4 µM) with Staphylococcus aureus [4]; > 256 mg/L in experiment [5]. In addition, in the experiment with Bacillus cereus, the MIC was > 256 mg/L. The result in the experiment on Cell membrane and in the experiment on Staphylococcus aureus [6] was Active. The inhibition in experiment [2] is 71.7%. In addition, the IC50 in experiment [7] was 5.49 µM.

With `CC(C)C[C@H]([C@H](O)C[C@H](O)C#CCCCCCCOCc1ccccc1)[C@@H](O)c1cc(O)cc(O)c1`, the MIC in the experiment on Staphylococcus aureus [1] is 128 mg/L (≈ 257 µM); in the experiment on Salmonella typhimurium, > 256 mg/L; with Staphylococcus aureus [3], 128 mg/L (≈ 257 µM); with Escherichia coli, > 256 mg/L; in the experiment on Staphylococcus aureus [4], 128 mg/L (≈ 257 µM); in experiment [5] it was > 256 mg/L. The MIC in the experiment on Bacillus cereus stood at 64 mg/L (≈ 128 µM). Besides, in the experiment with Cell membrane, the outcome was Active. Moreover, the inhibition in experiment [2] is 81.9%. In experiment [7], the IC50 was 10.2 µM.

Consider `CC(C)C[C@H]([C@H](O)CCNc1cccc(C(F)(F)F)c1)[C@@H](O)c1cc(O)cc(O)c1`, for which the MIC was 8 mg/L (≈ 18.7 µM) with Staphylococcus aureus [1]; > 256 mg/L in the experiment on Salmonella typhimurium; 8 mg/L (≈ 18.7 µM) in the experiment on Staphylococcus aureus [3]; > 256 mg/L in the experiment on Escherichia coli; 16 mg/L (≈ 37.4 µM) in the experiment on Staphylococcus aureus [4]; 64 mg/L (≈ 150 µM) in experiment [5]. The MIC with Bacillus cereus came out at 8 mg/L (≈ 18.7 µM). The outcome in the experiment on Cell membrane and in the experiment on Staphylococcus aureus [6] was Active. The inhibition in experiment [2] is 71.1%. Moreover, the IC50 in [7] came out at 6.12 µM.

Consider `Cc1ccc(NCC[C@@H](O)[C@@H](CC(C)C)[C@@H](O)c2cc(O)cc(O)c2)c(Cl)c1`, for which the MIC was 64 mg/L (≈ 157 µM) in the experiment with Staphylococcus aureus [1]; > 256 mg/L with Salmonella typhimurium; 16 mg/L (≈ 39.2 µM) with Staphylococcus aureus [3]; > 256 mg/L with Escherichia coli; 32 mg/L (≈ 78.4 µM) with Staphylococcus aureus [4]; > 256 mg/L in [5]. The MIC in the experiment on Bacillus cereus was > 256 mg/L. The result in the experiment with Cell membrane and in the experiment with Staphylococcus aureus [6] was Active. Besides, in experiment [2], the inhibition was determined as 89.2%. Besides, 4.12 µM corresponded to half-maximal inhibition in experiment [7] (IC50).

As for `CC(C)C[C@H]([C@H](O)C[C@H](O)C#C[C@@H](C)C[C@@H](C)C[C@@H](C)COCc1ccccc1)[C@@H](O)c1cc(O)cc(O)c1`, the outcome in the experiment with Cell membrane and in the experiment with Staphylococcus aureus [6] was Active. This compound showed an inhibition in experiment [2] of 77.5%. In addition, the MIC with Staphylococcus aureus [3] amounted to 1 mg/L (≈ 1.85 µM); with Staphylococcus aureus [4] it was 4 mg/L (≈ 7.4 µM). The compound further had an IC50 in experiment [7] of 11.4 µM.

For `CCC(=O)[C@H](C)C[C@H](C)C[C@H](C)CC[C@@H](O)C[C@@H](O)[C@@H](CC(C)C)[C@@H](O)c1cc(O)cc(O)c1`, the MIC in the experiment on Staphylococcus aureus [1] is 64 mg/L (≈ 133 µM); in the experiment on Salmonella typhimurium it was > 256 mg/L; in the experiment on Staphylococcus aureus [3] it was 256 mg/L (≈ 533 µM); in the experiment with Escherichia coli, 64 mg/L (≈ 133 µM); in the experiment with Staphylococcus aureus [4] it was 256 mg/L (≈ 533 µM); in experiment [5], > 256 mg/L. Moreover, in the experiment with Bacillus cereus, the MIC was 256 mg/L (≈ 533 µM). Besides, the result with Cell membrane was Active. The same compound returned an inhibition in experiment [2] of 61.2%. In experiment [7], this compound yielded an IC50 of 14.4 µM.

As usually defined, the MIC is the lowest concentration that inhibits growth of the organism. The term inhibition denotes how much of the control response was suppressed. As a reminder, the IC50 is the point on the concentration scale where inhibition reaches its midpoint.
